In patent US11117900B2 (Vertex Pharmaceuticals Incorporated, priority 2012, dated 2021):

System: HCT116 colorectal cancer cells
Assay: Cisplatin sensitization assay (96 h MTS cell viability);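 also: compound concentration needed to lower the IC50 of Cisplatin alone by a set fold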
Type: cell-based
Conditions: Cisplatin sensitization value
How it was run: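 The MTS viability read, after 1 h with reagent, followed 96 h of co-treatment at 37° C. in 5% CO2. Both compound and cisplatin were titrated 2-fold from a 10 μM top final concentration in a complete concentration matrix on HCT116 cells. Scores +++/++/+ reflect cisplatin sensitization value ranges.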

Compound | Cisplatin Sensitization Assay
Nc1nn2cc(F)cnc2c1C(=O)Nc1cncc(F)c1N1CCN2C(=O)CCC2C1 (stereo not shown) [I-N-163, 2-amino-6-fluoro-N-(5-fluoro-4-(6-oxohexahydropyrrolo[1,2-a]pyrazin-2(1H)-yl)pyridin-3-yl)pyrazolo[1,5-a]pyrimidine-3-carboxamide] | +++ (Compounds with a Cisplatin sensitization value of <0.02 μM are marked with “+++.”)
CN1CC(OC2CCN(c3ccncc3NC(=O)c3c(N)nn4cc(F)cnc34)CC2)C1 [I-N-164, 2-amino-6-fluoro-N-(4-(4-((1-methylazetidin-3-yl)oxy)piperidin-1-yl)pyridin-3-yl)pyrazolo[1,5-a]pyrimidine-3-carboxamide] | +++ (Compounds with a Cisplatin sensitization value of <0.02 μM are marked with “+++.”)
CS(=O)(=O)C1CCN(c2c(F)cncc2NC(=O)c2c(N)nn3cc(F)cnc23)CC1 [I-N-165, 2-amino-6-fluoro-N-(5-fluoro-4-(4-(methylsulfonyl)piperidin-1-yl)pyridin-3-yl)pyrazolo[1,5-a]pyrimidine-3-carboxamide] | +++ (Compounds with a Cisplatin sensitization value of <0.02 μM are marked with “+++.”)
CN1CCN(S(=O)(=O)C2CCN(c3c(F)cncc3NC(=O)c3c(N)nn4cc(F)cnc34)CC2)CC1 [I-N-166, 2-amino-6-fluoro-N-(5-fluoro-4-(4-((4-methylpiperazin-1-yl)sulfonyl)piperidin-1-yl)pyridin-3-yl)pyrazolo[1,5-a]pyrimidine-3-carboxamide] | +++ (Compounds with a Cisplatin sensitization value of <0.02 μM are marked with “+++.”)
Nc1nn2cc(F)cnc2c1C(=O)Nc1cncc(F)c1N1CCC(OCCN2CCCC2)CC1 [I-N-167, 2-amino-6-fluoro-N-(5-fluoro-4-(4-(2-(pyrrolidin-1-yl)ethoxy)piperidin-1-yl)pyridin-3-yl)pyrazolo[1,5-a]pyrimidine-3-carboxamide] | +++ (Compounds with a Cisplatin sensitization value of <0.02 μM are marked with “+++.”)
Nc1nn2cc(F)cnc2c1C(=O)Nc1cncc(F)c1N1CCN(C(=O)C2CNC2)CC1 [I-N-168, 2-amino-N-(4-(4-(azetidine-3-carbonyl)piperazin-1-yl)-5-fluoropyridin-3-yl)-6-fluoropyrazolo[1,5-a]pyrimidine-3-carboxamide] | + (Compounds with a Cisplatin sensitization value >0.2 μM but <5 μM are marked with “+.”)
Nc1nn2cc(F)cnc2c1C(=O)Nc1cncc(F)c1N1CCC(S(=O)(=O)N2CCC2)CC1 [I-N-169, 2-amino-N-(4-(4-(azetidin-1-ylsulfonyl)piperidin-1-yl)-5-fluoropyridin-3-yl)-6-fluoropyrazolo[1,5-a]pyrimidine-3-carboxamide] | +++ (Compounds with a Cisplatin sensitization value of <0.02 μM are marked with “+++.”)
Nc1nn2cc(F)cnc2c1C(=O)Nc1cnccc1N1CCC(S(=O)(=O)N2CCOCC2)CC1 [I-N-170, 2-amino-6-fluoro-N-(4-(4-(morpholinosulfonyl)piperidin-1-yl)pyridin-3-yl)pyrazolo[1,5-a]pyrimidine-3-carboxamide] | +++ (Compounds with a Cisplatin sensitization value of <0.02 μM are marked with “+++.”)
CN1CCN(CC2CCN(c3c(F)cncc3NC(=O)c3c(N)nn4cc(F)cnc34)CC2)CC1=O [I-N-171, 2-amino-6-fluoro-N-(5-fluoro-4-(4-((4-methyl-3-oxopiperazin-1-yl)methyl)piperidin-1-yl)pyridin-3-yl)pyrazolo[1,5-a]pyrimidine-3-carboxamide] | +++ (Compounds with a Cisplatin sensitization value of <0.02 μM are marked with “+++.”)
Nc1nn2cc(F)cnc2c1C(=O)Nc1cncc(F)c1N1CCN(C(=O)C2CNCCO2)CC1 (stereo not shown) [I-N-172, 2-amino-6-fluoro-N-(5-fluoro-4-(4-(morpholine-2-carbonyl)piperazin-1-yl)pyridin-3-yl)pyrazolo[1,5-a]pyrimidine-3-carboxamide] | +++ (Compounds with a Cisplatin sensitization value of <0.02 μM are marked with “+++.”)
CN1CCCCC1C(=O)N1CCN(c2c(F)cncc2NC(=O)c2c(N)nn3cc(F)cnc23)CC1 (stereo not shown) [I-N-173, 2-amino-6-fluoro-N-(5-fluoro-4-(4-(1-methylpiperidine-2-carbonyl)piperazin-1-yl)pyridin-3-yl)pyrazolo[1,5-a]pyrimidine-3-carboxamide] | +++ (Compounds with a Cisplatin sensitization value of <0.02 μM are marked with “+++.”)
CN1CCOC(C(=O)N2CCN(c3c(F)cncc3NC(=O)c3c(N)nn4cc(F)cnc34)CC2)C1 (stereo not shown) [I-N-174, 2-amino-6-fluoro-N-(5-fluoro-4-(4-(4-methylmorpholine-2-carbonyl)piperazin-1-yl)pyridin-3-yl)pyrazolo[1,5-a]pyrimidine-3-carboxamide] | +++ (Compounds with a Cisplatin sensitization value of <0.02 μM are marked with “+++.”)
CN1CCC(S(=O)(=O)N2CCN(c3c(F)cncc3NC(=O)c3c(N)nn4cc(F)cnc34)CC2)CC1 [I-N-175, 2-amino-6-fluoro-N-(5-fluoro-4-(4-((1-methylpiperidin-4-yl)sulfonyl)piperazin-1-yl)pyridin-3-yl)pyrazolo[1,5-a]pyrimidine-3-carboxamide] | +++ (Compounds with a Cisplatin sensitization value of <0.02 μM are marked with “+++.”)
Nc1nn2cc(F)cnc2c1C(=O)Nc1cnccc1N1CCN(S(=O)(=O)C2CC2)CC1 [I-N-176, 2-amino-N-(4-(4-(cyclopropylsulfonyl)piperazin-1-yl)pyridin-3-yl)-6-fluoropyrazolo[1,5-a]pyrimidine-3-carboxamide] | +++ (Compounds with a Cisplatin sensitization value of <0.02 μM are marked with “+++.”)
Nc1nn2cc(F)cnc2c1C(=O)Nc1cnccc1N1CCN(S(=O)(=O)C2CCOCC2)CC1 [I-N-177, 2-amino-6-fluoro-N-(4-(4-((tetrahydro-2H-pyran-4-yl)sulfonyl)piperazin-1-yl)pyridin-3-yl)pyrazolo[1,5-a]pyrimidine-3-carboxamide] | +++ (Compounds with a Cisplatin sensitization value of <0.02 μM are marked with “+++.”)
CS(=O)(=O)N1CCN(c2ccncc2NC(=O)c2c(N)nn3cc(F)cnc23)CC1 [I-N-178, 2-amino-6-fluoro-N-(4-(4-(methylsulfonyl)piperazin-1-yl)pyridin-3-yl)pyrazolo[1,5-a]pyrimidine-3-carboxamide] | +++ (Compounds with a Cisplatin sensitization value of <0.02 μM are marked with “+++.”)
Nc1nn2cc(F)cnc2c1C(=O)Nc1cnccc1N1CCN(S(=O)(=O)C2CCOC2)CC1 (stereo not shown) [I-N-179, 2-amino-6-fluoro-N-(4-(4-((tetrahydrofuran-3-yl)sulfonyl)piperazin-1-yl)pyridin-3-yl)pyrazolo[1,5-a]pyrimidine-3-carboxamide] | +++ (Compounds with a Cisplatin sensitization value of <0.02 μM are marked with “+++.”)
CN1CCC[C@@H]1C(=O)N1CCN(c2c(F)cncc2NC(=O)c2c(N)nn3cc(F)cnc23)CC1 [I-N-181, (R)-2-amino-6-fluoro-N-(5-fluoro-4-(4-(1-methylpyrrolidine-2-carbonyl)piperazin-1-yl)pyridin-3-yl)pyrazolo[1,5-a]pyrimidine-3-carboxamide] | +++ (Compounds with a Cisplatin sensitization value of <0.02 μM are marked with “+++.”)
Nc1nn2cc(F)cnc2c1C(=O)Nc1cncc(F)c1N1CCN2C(=O)CC[C@@H]2C1 [I-N-182, (R)-2-amino-6-fluoro-N-(5-fluoro-4-(6-oxohexahydropyrrolo[1,2-a]pyrazin-2(1H)-yl)pyridin-3-yl)pyrazolo[1,5-a]pyrimidine-3-carboxamide] | ++ (Compounds with a Cisplatin sensitization value >0.02 μM but <0.2 μM are marked with “++.”)
CN1CCOC2(CCN(c3ccncc3NC(=O)c3c(N)nn4cc(F)cnc34)CC2)C1 [I-N-183, 2-amino-6-fluoro-N-(4-(4-methyl-1-oxa-4,9-diazaspiro[5.5]undecan-9-yl)pyridin-3-yl)pyrazolo[1,5-a]pyrimidine-3-carboxamide] | +++ (Compounds with a Cisplatin sensitization value of <0.02 μM are marked with “+++.”)
Nc1nn2cc(F)cnc2c1C(=O)Nc1cncc(F)c1N1CCC(c2nccs2)CC1 [I-N-184, 2-amino-6-fluoro-N-(5-fluoro-4-(4-(thiazol-2-yl)piperidin-1-yl)pyridin-3-yl)pyrazolo[1,5-a]pyrimidine-3-carboxamide] | ++ (Compounds with a Cisplatin sensitization value >0.02 μM but <0.2 μM are marked with “++.”)
CCN1CCCC1C(=O)N1CCN(c2c(F)cncc2NC(=O)c2c(N)nn3cc(F)cnc23)CC1 (stereo not shown) [I-N-185, 2-amino-N-(4-(4-(1-ethylpyrrolidine-2-carbonyl)piperazin-1-yl)-5-fluoropyridin-3-yl)-6-fluoropyrazolo[1,5-a]pyrimidine-3-carboxamide] | ++ (Compounds with a Cisplatin sensitization value >0.02 μM but <0.2 μM are marked with “++.”)
Nc1nn2cc(F)cnc2c1C(=O)Nc1cncc(F)c1N1CCN(C(=O)CN2CCCC2)CC1 [I-N-187, 2-amino-6-fluoro-N-(5-fluoro-4-(4-(2-(pyrrolidin-1-yl)acetyl)piperazin-1-yl)pyridin-3-yl)pyrazolo[1,5-a]pyrimidine-3-carboxamide] | +++ (Compounds with a Cisplatin sensitization value of <0.02 μM are marked with “+++.”)
CN1CCC(S(=O)(=O)N2CCN(c3ccncc3NC(=O)c3c(N)nn4cc(F)cnc34)CC2)CC1 [I-N-188, 2-amino-6-fluoro-N-(4-(4-((1-methylpiperidin-4-yl)sulfonyl)piperazin-1-yl)pyridin-3-yl)pyrazolo[1,5-a]pyrimidine-3-carboxamide] | +++ (Compounds with a Cisplatin sensitization value of <0.02 μM are marked with “+++.”)
Nc1nn2cc(F)cnc2c1C(=O)Nc1cncc(F)c1N1CCC(N2CCOCC2)CC1 [I-N-189, 2-amino-6-fluoro-N-(5-fluoro-4-(4-morpholinopiperidin-1-yl)pyridin-3-yl)pyrazolo[1,5-a]pyrimidine-3-carboxamide] | +++ (Compounds with a Cisplatin sensitization value of <0.02 μM are marked with “+++.”)
